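Briefly, cells in 96-well plates were exposed to five compound concentrations for 48 h, and endpoints were estimated by linear interpolation. GI50 is the concentration that inhibits growth by half.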 Calls of active or inactive are those of the source. Cut-off read from the data, not from the text of the source: active = GI50 up to about 1.1 µM and inactive = higher.
Experiments:
Experiment in all cases: NCI-60 cell line screen, 48 h
ACHN = system: ACHN
HCT-116 = system: HCT-116
NCI-H23 = system: NCI-H23
MDA-MB-231 = system: MDA-MB-231
NCI-H522 = system: NCI-H522
SK-OV-3 = system: SK-OV-3
HOP-62 = system: HOP-62
CCRF-CEM = system: CCRF-CEM
SF-268 = system: SF-268
UACC-257 = system: UACC-257
U-251 = system: U-251
RXF 393 = system: RXF 393
A549 = system: A549
COLO 205 = system: COLO 205
TK-10 = system: TK-10
HCT-15 = system: HCT-15
OVCAR-4 = system: OVCAR-4
A498 = system: A498
KM12 = system: KM12
SN12C = system: SN12C

SMILES	GI50 (ACHN)	GI50 (HCT-116)	GI50 (NCI-H23)	GI50 (MDA-MB-231)	GI50 (NCI-H522)	GI50 (SK-OV-3)	GI50 (HOP-62)	GI50 (CCRF-CEM)	GI50 (SF-268)	GI50 (UACC-257)	GI50 (U-251)	GI50 (RXF 393)	GI50 (A549)	GI50 (COLO 205)	GI50 (TK-10)	GI50 (HCT-15) [µM]	GI50 (OVCAR-4)	GI50 (A498)	GI50 (KM12)	GI50 (SN12C)
Cc1c(CNc2ccc(C(=O)NC(CC(=O)O)C(=O)O)cc2)ccc2nc(N)nc(N)c12 (stereo not given)	< 0.01 µM (active)	< 0.01 µM (active)	< 0.018 µM (active)	> 100 µM (inactive)	< 0.018 µM (active)	0.146 µM (active)	< 0.0103 µM (active)	< 0.01 µM (active)	< 0.01 µM (active)	0.605 µM (active)	0.0546 µM (active)	5.04 µM (inactive)	< 0.01 µM (active)	> 9.42 µM (inactive)	1.86 µM (inactive)	< 0.01	> 100 µM (inactive)	0.219 µM (active)	0.0743 µM (active)	0.0499 µM (active)
O=C1/C(=C/c2cccc(Oc3ccccc3)c2)N=C(c2ccccc2)N1c1nc2ccc(Sc3ccccc3)cc2[nH]1	54.3 µM (inactive)	30.2 µM (inactive)	12.1 µM (inactive)	19.8 µM (inactive)	25.2 µM (inactive)	25.6 µM (inactive)	28.4 µM (inactive)	24.6 µM (inactive)	37.7 µM (inactive)	29.4 µM (inactive)	27.4 µM (inactive)	24.8 µM (inactive)	42.1 µM (inactive)	16.9 µM (inactive)	25.2 µM (inactive)	28	47.3 µM (inactive)	26.1 µM (inactive)	29.6 µM (inactive)	20.7 µM (inactive)
NC(CCC(=O)O)C(=O)NC(Cc1ccc(N(CCCl)CCCl)cc1)C(=O)O (stereo not given)	> 100 µM (inactive)	> 100 µM (inactive)	> 100 µM (inactive)	> 100 µM (inactive)	> 100 µM (inactive)	> 100 µM (inactive)	> 100 µM (inactive)	> 100 µM (inactive)	> 100 µM (inactive)	> 100 µM (inactive)	> 100 µM (inactive)	> 100 µM (inactive)	> 100 µM (inactive)	> 100 µM (inactive)	> 100 µM (inactive)	> 100	> 100 µM (inactive)	> 100 µM (inactive)	> 100 µM (inactive)	> 100 µM (inactive)
O=Nn1c2ccccc2c2ccccc21	56.2 µM (inactive)	85.9 µM (inactive)	58.2 µM (inactive)	65.2 µM (inactive)	38.6 µM (inactive)	84.5 µM (inactive)	> 100 µM (inactive)	45.7 µM (inactive)	> 100 µM (inactive)	61.2 µM (inactive)	92.9 µM (inactive)	37.7 µM (inactive)	17.5 µM (inactive)	14.1 µM (inactive)	70.5 µM (inactive)	35.1	90.8 µM (inactive)	23.8 µM (inactive)	34.3 µM (inactive)	> 100 µM (inactive)
O=C1NC(=O)C(c2c[nH]c3cc(Br)ccc23)=C1c1cn(C(c2ccccc2)(c2ccccc2)c2ccccc2)cn1	20.2 µM (inactive)	10.5 µM (inactive)	11.3 µM (inactive)	5.97 µM (inactive)	13.3 µM (inactive)	28.6 µM (inactive)	24.7 µM (inactive)	5.45 µM (inactive)	13.8 µM (inactive)	18.5 µM (inactive)	10.7 µM (inactive)	15 µM (inactive)	7.24 µM (inactive)	12.3 µM (inactive)	16.2 µM (inactive)	12.8	26.5 µM (inactive)	16.8 µM (inactive)	9.23 µM (inactive)	15.5 µM (inactive)
NS(=O)(=O)c1ccc(/N=N/c2cc3ccccc3c(C(=O)O)c2O)cc1	15.7 µM (inactive)	12.6 µM (inactive)	> 47.8 µM (inactive)	> 52 µM (inactive)	> 41 µM (inactive)	> 66.4 µM (inactive)	> 59.2 µM (inactive)	78 µM (inactive)	> 52.1 µM (inactive)	> 58.2 µM (inactive)	> 39.9 µM (inactive)	> 46.2 µM (inactive)	> 52.7 µM (inactive)	> 58.6 µM (inactive)	> 47.4 µM (inactive)	> 49.7	> 46.5 µM (inactive)	> 53.6 µM (inactive)	5.18 µM (inactive)	> 78.3 µM (inactive)
Cc1ccc2occ/c(=N\Nc3ccccc3)c2c1	> 100 µM (inactive)	47.2 µM (inactive)	28.1 µM (inactive)	88.5 µM (inactive)	84.7 µM (inactive)	59.6 µM (inactive)	32.6 µM (inactive)	> 100 µM (inactive)	> 100 µM (inactive)	> 100 µM (inactive)	66.1 µM (inactive)	21.8 µM (inactive)	57 µM (inactive)	41.1 µM (inactive)	> 100 µM (inactive)	39.9	13.2 µM (inactive)	76.6 µM (inactive)	12.7 µM (inactive)	> 100 µM (inactive)
COC(=O)[C@@H](OC(C)=O)[C@@H](OC(C)=O)c1nnc2ccc(Cl)nn12	> 100 µM (inactive)	> 100 µM (inactive)	> 100 µM (inactive)	> 100 µM (inactive)	22.2 µM (inactive)	> 100 µM (inactive)	> 100 µM (inactive)	> 100 µM (inactive)	> 100 µM (inactive)	87.9 µM (inactive)	> 100 µM (inactive)	> 100 µM (inactive)	> 100 µM (inactive)	> 100 µM (inactive)	> 100 µM (inactive)	> 100	> 100 µM (inactive)	> 100 µM (inactive)	> 100 µM (inactive)	> 100 µM (inactive)
Cc1cc(C)c2c(=O)n(CN3CC4Nc5ccccc5C4C3)sc2n1 (stereo not given)	17.9 µM (inactive)	20.4 µM (inactive)	22 µM (inactive)	18.7 µM (inactive)	4.19 µM (inactive)	56 µM (inactive)	35.6 µM (inactive)	22 µM (inactive)	14.8 µM (inactive)	15.5 µM (inactive)	31.3 µM (inactive)	22.8 µM (inactive)	38.5 µM (inactive)	26.1 µM (inactive)	19.4 µM (inactive)	21	21 µM (inactive)	37.9 µM (inactive)	> 100 µM (inactive)	30.7 µM (inactive)
CCOC(=O)n1ccc2c(C(=O)OC)c(C(=O)OC)cc(/C(=C/C(=O)OC)C(=O)OC)c21	> 100 µM (inactive)	89.3 µM (inactive)	> 100 µM (inactive)	> 100 µM (inactive)	57.1 µM (inactive)	> 100 µM (inactive)	> 100 µM (inactive)	10.4 µM (inactive)	> 100 µM (inactive)	> 100 µM (inactive)	> 100 µM (inactive)	66.8 µM (inactive)	> 100 µM (inactive)	> 100 µM (inactive)	> 100 µM (inactive)	> 10	> 100 µM (inactive)	> 100 µM (inactive)	> 100 µM (inactive)	> 100 µM (inactive)

From ChEMBL document CHEMBL1201862, “PubChem BioAssay data set” (2004)
